# Measured values reported in PubChem BioAssay AID489027 (Sanford-Burnham Center for Chemical Genomics, 2010).
# Active and inactive are the calls of the source. No rule for the calls is given here.
# Molecular target: UPR counterscreen luciferase reporter, luminescence
# Assay: activators in UPR counterscreen luciferase reporter, dose response, counter-screen for adaptive UPR activator project, cell-based, luminescence (AID 489027)
row,Compound,EC50
1,CCOC(=O)c1c(-c2ccc(C)o2)csc1NC(=O)COC(=O)c1ccc(NC(N)=O)cc1,> 80 µM (inactive)
2,COc1cc(/C=N/Nc2nc(Nc3ccccc3)nc(-n3nc(C)cc3C)n2)cc(OC)c1OC,> 80 µM (inactive)
3,O=C(CSc1nc2ccc(Nc3nc(N4CCOCC4)nc(N4CCOCC4)n3)cc2s1)Nc1ccccc1F,> 80 µM (inactive)
4,CCOC(=O)c1nnc(-c2ccccc2)nc1Sc1ccccc1Cl,14.3 µM
5,OCCNc1nc(Nc2ccc(Cl)c(Cl)c2)nc2ccccc12,10.8 µM
6,Cc1nc2ccccc2n1-c1nc(-c2ccco2)cc(C(F)(F)F)n1,11.1 µM
7,O=Cc1cc2ccccc2nc1SCc1ccc(Cl)c(Cl)c1,inactive
8,Cc1ccc2c(c1)C(=O)C(=O)N2Cc1ccc(C(F)(F)F)cc1,inactive
9,Oc1ccc(/C=N/Nc2ncnc3c2ncn3Cc2ccccc2)cc1O,7.62 µM
10,CCCc1nc2ccccc2c(=O)n1/N=C/c1ccc(O)c(O)c1,15 µM
11,COc1ccc(OC)c(-c2nnc3n2N=C(c2ccc(OC)c(OCC4CC4)c2)CS3)c1,> 80 µM (inactive)
12,CC(=O)c1cccc(Nc2nc(-c3cccc([N+](=O)[O-])c3)cs2)c1,> 80 µM (inactive)
13,O=C(N/N=C/C(Br)=C\c1ccccc1)c1n[nH]c2c1CCC2,inactive
14,COc1ccc(CNC(=O)/C(C#N)=C/c2cccc(OC)c2OC)cc1,inactive
15,CCn1cc(C(=O)NC(=S)Nc2sc3c(c2C(=O)OC)CCCCCC3)cn1,inactive
16,Cc1ccc2c(n1)sc1c(-c3ccc(Br)cc3)c(C#N)c(N)nc12,> 80 µM (inactive)
17,CCC1(c2ccc(F)cc2)NC(=O)N(CC(=O)Nc2ccc(-c3nc4ccc(C)cc4s3)cc2)C1=O (stereo not drawn),> 80 µM (inactive)
18,CC(=O)Oc1ccc(-c2ccc(C(=O)OCC(=O)N(C)CC(=O)Nc3ccccc3Cl)cc2)cc1,3.02 µM
19,O=c1cc(C(Cl)(Cl)Cl)oc2c1ccc1ccccc12,> 80 µM (inactive)
20,C/C(Cl)=C\Cn1c(O)c(N=NC(N)=S)c2cc(Br)ccc21,17.3 µM
21,Cc1ccc(-n2nc3c(N4CCC(C(=O)NCCc5ccccc5C)CC4)nnc(C)c3c2C)cc1,> 80 µM (inactive)
22,Cc1c(NC(=O)CSc2ccc(Cl)cc2)cccc1-c1nc2cc(Cl)ccc2o1,> 80 µM (inactive)
23,CCOC(=O)c1c(NC(=O)c2cc(C)on2)c2cc([N+](=O)[O-])ccc2n1C,> 80 µM (inactive)
24,Cn1ncc(N=Cc2c(O)ccc3ccccc23)c1C(=O)Nc1cccc(Cl)c1,> 80 µM (inactive)

row,Compound,EC50
1,COc1ccc(NC(=O)CSc2nc3ccc(Nc4nc(N5CCOCC5)nc(N5CCOCC5)n4)cc3s2)cc1,> 80 µM (inactive)
2,COc1ccc(-c2c(-c3cc(OC)cc(OC)c3)n(C)c3ccc(-c4cnc(N)nc4)cc23)cc1,> 80 µM (inactive)
3,COc1cc(N(C(=O)Cc2cccs2)C(C(=O)NC2CCCCC2)c2ccc(C)cc2)ccc1-n1cnnn1 (stereo not drawn),> 80 µM (inactive)
4,Cc1cc(NC(=O)c2cc(-c3ccncc3)nc3c(C)cccc23)no1,16 µM
5,Cn1c(-c2ccccc2)c(/C=N/NC(=O)c2ccc(O)cc2)c2ccccc21,> 80 µM (inactive)
6,Cc1cc(NC(=O)CSc2ccc(-c3nc4cc(C)c(C)cc4[nH]3)cn2)no1,inactive
7,COc1ccc2[nH]c3nc(SCc4nnc(-c5ccc(C)cc5)o4)nnc3c2c1,19.7 µM
8,CCc1ccc2[nH]c3nc(SCC(=O)NNC(=O)c4ccc(C(C)(C)C)cc4)nnc3c2c1,inactive
9,O=CC1=C(c2ccccc2)Oc2ccccc2O1,10.3 µM
10,COc1ccc(-c2cc(-c3ccccc3)c(C#N)c(S(C)(=O)=O)n2)cc1,5.05 µM
11,O=C(/C=C1\NC2(CCCC2)Cc2ccccc21)C(=O)N/N=C/c1ccc(O)c(O)c1,10.4 µM
12,CCCCCCCCCCOC(=O)Cn1c(COc2ccc(Cl)cc2)[n+](C)c2ccccc21,> 80 µM (inactive)
13,CC1=CC(C)(C)N2C(=O)C(=O)c3cc(OC(=O)c4ccco4)cc1c32,inactive
14,O=C(N/N=C/c1ccc(O)c(O)c1)c1ccc(CSc2cccc3cccnc23)cc1,15.2 µM
15,CC1CCCCC1N1CN=C(Nc2nc3ccccc3s2)NC1 (stereo not drawn),> 80 µM (inactive)
16,Cn1c2ccccc2c2cc(/C=N/NC(=O)c3cc(O)ccc3O)ccc21,4.02 µM
17,Cc1ccc2oc(C(Cl)(Cl)Cl)cc(=O)c2c1,> 80 µM (inactive)
18,CC1=Nc2ccccc2/C1=C\c1sc(Nc2ccc(C)cc2)nc1O,17.3 µM
19,Cc1cccc(N2CCN(C(=S)Nc3ccc4nc(N5CCN(C)CC5)cc(C)c4c3)CC2C)c1 (stereo not drawn),> 80 µM (inactive)
20,Cc1ccc(-n2nc3cc(C)c(NC(=S)NC(=O)/C=C/c4ccco4)cc3n2)cc1,11.6 µM
21,Cc1cc(C)cc(NC(=O)/C(C#N)=C/c2cn(CC(=O)NCc3ccco3)c3ccccc23)c1,7.27 µM
22,Cc1ccnc(N/C=C(\C#N)c2nc(-c3cccc(Br)c3)cs2)c1,19 µM
23,CCc1nc(C)cn1S(=O)(=O)c1cc([N+](=O)[O-])ccc1Cl,> 80 µM (inactive)
24,CCOc1ccccc1NC(=O)Cn1c(=O)n(-c2ccccc2)c(=O)c2oc3ccccc3c21,> 80 µM (inactive)
